Data: patent US9533017B2, “Saccharomyces cerevisiae yeast for preventing and/or treating vaginal mycoses” (LESAFFRE ET COMPAGNIE, priority 2012, dated 2017)
Entries after “also recorded” stand apart in the source; their conditions may differ.

Tests used:
Candida albicans [1] = experiment: Rat model of vaginal candidosis: viable C. albicans in the vaginal mucosa (cervico-uterine smears on Chrom-Agar plates); format: in vivo; conditions: for mean growth of the colonies of C. albicans on Chrom-Agar plates (smears): fluconazole 50 μg intravaginal 1 h, 24 h, 48 h after infection
Protocol: (§1) Ovariectomized female rats (Sprague-Dawley) aged from 3 to 5 weeks are purchased from Janvier Laboratoires, France. They are maintained under pseudo-estrus by a subcutaneous injection of estradiol benzoate (Sigma, estradiol benzoate resuspended in sesame oil; 0.5 mg/animal) every other day (i.e. three times per week) up to the end of the experiment.
(§2) A week after the first injection of estradiol inducing pseudo-estrus, the female rats are infected with C. albicans. Infection with C. albicans corresponds to a single intravaginal administration of the C. albicans strain at a concentration of 10^7 CFU.
(§3) Fluconazole is administered by the intravaginal route at a dose of 50 μg per rat, respectively 1 h, 24 h and 48 h after infection with C. albicans. […]
The number of colonies of C. albicans adhering to the vaginal mucosa is evaluated every two days after infection with Candida albicans and up to the end of the experiment (3 weeks later) by taking a cervico-uterine smear (with a calibrated loop) and by spreading on Chrom-Agar plates (a growth medium specific and selective for Candida), 5 vaginal samples being combined.
The viable colonies of Candida albicans are counted after two days of culture at 30° C. on a selective medium (Chrom-Agar plates, BD).
Another way of expressing the results is to calculate the area under the curve (AUC) between day 2 and day 12, which represents a quantitative marker of the presence of viable C. albicans in the vaginal mucosa of rats receiving or not receiving fluconazole.

Candida albicans [2] = experiment: Rat model of vaginal candidosis: viable C. albicans CFUs in vaginal washes; format: in vivo; design: AUC values (D 2-13): unit not given beside the values; conditions: for number of C. albicans CFUs determined from the washes: fluconazole 50 μg intravaginal 1 h
Protocol: as §1, §2, §3
The viable colonies of Candida albicans are counted after two days of culture at 30° C. on a selective medium (Chrom-Agar plates, BD). […]
The number of C. albicans (in CFU) is determined from cervico-uterine smears and washes as described above.

Candida albicans [3] = experiment: Antigen with mannoside structure of C. albicans in combined vaginal washes (ICT strips); format: in vivo, rat; conditions: combined washes from 5 rats; fluconazole vs untreated infected rats
Description: Detection of an antigen of C. albicans is useful for diagnosing vaginal candidosis. The antigen comprises a highly immunogenic mannoside structure present in the cell wall of C. albicans. The antigen with mannoside structure is the main antigen present in vaginal infection, it therefore constitutes a useful biomarker for diagnosing […] candidosis.
Another possibility for detecting the presence of the antigen with mannoside structure consists of using ICT strips (Candi Vagi, SR2B). “ICT” is based on capture of the antigen contained in the vaginal secretions using a mouse immunoglobulin IgM directed against the antigen with mannoside structure. The monoclonal antibody recognizes the epitopes of the antigen with mannoside structure for a wide range of Candida species. The monoclonal antibody is conjugated to particles or in a mobile phase and is also applied on a nitrocellulose strip as capture antibody. The ICT stick is put in the suspension of vaginal sample and the samples move by capillary action through the block containing the “MAb-gold” conjugate (Mab for monoclonal antibody). The analysis is performed as described in the publication Marot-Leblond et al., Journal of Clinical Microbiology, 2009.
The antigen with mannoside structure is quantified using non-commercial strips in combined washes from 5 rats.

Candida albicans [4] = experiment: Cytologic analysis of vaginal washes (MGG staining), inflammation; format: in vivo, rat
Protocol: The smears are prepared from a cervical sample and from washes.
Preparations of cells in a thin layer on slides are prepared from combined washes in each group of rats (washes from 5 rats) using a cytocentrifuge (Cytospin®). The slides are fixed using an aerosol cytologic fixative (Cytoral®).
Conventional May Grunwaid Giemsa staining is carried out for evaluating the level of inflammation in the groups of rats that received C. albicans alone or combined with the treatment with the Sc I-3856 yeast.
Slides are prepared from the combined vaginal washes and MGG staining is carried out in order to evaluate the appearance of the vaginal epithelial cells, the presence of bacteria and yeasts and the presence of proinflammatory cells.
For cytologic investigation of the vaginal washes, slides are prepared from the combined vaginal washes and MGG staining is carried out.
The appearance of the vaginal epithelial cells, the presence of bacteria and yeasts and the presence of proinflammatory cells are evaluated by observation (results not shown).

Candida albicans [5] = experiment: Rat model of vaginal candidosis: viable C. albicans in the vaginal mucosa (cervico-uterine smears on Chrom-Agar plates); format: in vivo; design: AUC values (D2 to D13): unit not given beside the values; conditions: fluconazole 50 μg 1 h, 24 h, 48 h after infection

OC(Cn1cncn1)(Cn1cncn1)c1ccc(F)cc1F [fluconazole]
mean growth of the colonies of C. albicans on Chrom-Agar plates (smears) (Candida albicans [1]; day 2): 5.25 CFU | mean growth of the colonies of C. albicans on Chrom-Agar plates (smears) (Candida albicans [1]; day 5): 25 CFU | mean growth of the colonies of C. albicans on Chrom-Agar plates (smears) (Candida albicans [1]; day 7): 42 CFU | mean growth of the colonies of C. albicans on Chrom-Agar plates (smears) (Candida albicans [1]; day 10): 17 CFU | infection of the vaginal mucosa with C. albicans on day 12 (Candida albicans [1]; day 12, fluconazole): absence of infection with C. albicans; also recorded: prevent infection with Candida albicans completely | mean growth of the colonies of C. albicans on Chrom-Agar plates (smears) (Candida albicans [1]; day 13): 7 CFU | mean growth of the colonies of C. albicans on Chrom-Agar plates (smears) (Candida albicans [1]; day 15): 34.45 CFU | mean growth of the colonies of C. albicans on Chrom-Agar plates (smears) (Candida albicans [1]; day 17): 24.4 CFU | mean growth of the colonies of C. albicans on Chrom-Agar plates (smears) (Candida albicans [1]; day 20): 8.8 CFU | mean growth of the colonies of C. albicans on Chrom-Agar plates (smears) (Candida albicans [1]; day 23): 11.8 CFU | mean growth of the colonies of C. albicans on Chrom-Agar plates (smears) (Candida albicans [1]; day 25): 11.6 CFU | decrease in the number of viable C. albicans in the vaginal mucosa (AUC) relative to untreated rats (Candida albicans [1]; first 12 days after infection, fluconazole treatment): 36% | decrease in elimination of viable C. albicans (AUC of washes) relative to the untreated rats (Candida albicans [2]; between days 2 and 12, fluconazole): 20% | number of C. albicans CFUs determined from the washes (Candida albicans [2]; day 2, 24 h, 48 h after infection): 9 CFU | number of C. albicans CFUs determined from the washes (Candida albicans [2]; day 5, 24 h, 48 h after infection): 53 CFU | number of C. albicans CFUs determined from the washes (Candida albicans [2]; day 7, 24 h, 48 h after infection): 17 CFU | number of C. albicans CFUs determined from the washes (Candida albicans [2]; day 10, 24 h, 48 h after infection): 3 CFU | number of C. albicans CFUs determined from the washes (Candida albicans [2]; day 13, 24 h, 48 h after infection): 1 CFU | number of C. albicans CFUs determined from the washes (Candida albicans [2]; day 15, 24 h, 48 h after infection): 6 CFU | number of C. albicans CFUs determined from the washes (Candida albicans [2]; day 17, 24 h, 48 h after infection): 7 CFU | number of C. albicans CFUs determined from the washes (Candida albicans [2]; day 20, 24 h, 48 h after infection): 3 CFU | number of C. albicans CFUs determined from the washes (Candida albicans [2]; day 23, 24 h, 48 h after infection): 1 CFU | number of C. albicans CFUs determined from the washes (Candida albicans [2]; day 25, 24 h, 48 h after infection): 4 CFU | percentage of CFUs of C. albicans released/detected in washes in the first phase (D2-D5) (Candida albicans [2]; days 2 to 5, fluconazole): 73% | increase of the elimination of viable C. albicans (Candida albicans [2]; first week after infection, fluconazole): 45% | peak intensity of release of Candida in washes (Candida albicans [2]; fluconazole, first 8 days after infection): 5 days | AUC values (D 2-13) (Candida albicans [2]; washes, fluconazole 50 μg 1 h, 24 h, 48 h after infection): 199 | quantity of antigens with mannoside structure (Candida albicans [3]): less in the rats treated with fluconazole than in the untreated rats | cytology of vaginal washes: inflammatory cells (Candida albicans [4]; day 2, fluconazole): prevents inflammatory infiltration | cytology of vaginal washes: C. albicans and inflammatory cells (Candida albicans [4]; day 12, fluconazole): not one C. albicans cell is observed and only a few macrophages and neutrophils are present; also recorded: no C. albicans is observed, but some macrophages and neutrophils are observed | presence of C. albicans on slides of vaginal washes (Candida albicans [4]; day D2 (by context), yeast as prophylactic or therapeutic treatment): presence of C. albicans is observed | AUC values (D2 to D13) (Candida albicans [5]): 236.875 | Difference (AUC D2 to D13 vs C. albicans untreated) (Candida albicans [5]): 135.555
